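48-hour exposure; five concentrations; linearly interpolated endpoints. GI50 is the concentration that inhibits growth by half. Definition used: TGI = concentration required for complete inhibition of growth.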
Experiments:
Assay in all cases: NCI anticancer screen, dose series, 48 h
MDA-MB-435 = system: MDA-MB-435
OVCAR-8 ovarian = system: OVCAR-8 ovarian
SW-620 colon = system: SW-620 colon
SN12C renal = system: SN12C renal
ACHN renal = system: ACHN renal
MCF7 breast = system: MCF7 breast
SNB-19 CNS = system: SNB-19 CNS
SR leukemia = system: SR leukemia
NCI-H23 lung = system: NCI-H23 lung
T-47D breast = system: T-47D breast

## COc1ccc2c(c1)C(=O)c1c-2n(CCCN(C)C)c(=O)c2cc([N+](=O)[O-])ccc12
MDA-MB-435
  GI50: < 0.01 µM
  TGI: 1.32 µM
OVCAR-8 ovarian
  GI50: < 0.011 µM
  TGI: 3.75 µM
SW-620 colon
  GI50: < 0.01 µM
  TGI: 1.34 µM
SN12C renal
  GI50: < 0.01 µM
  TGI: 10.7 µM
ACHN renal
  GI50: < 0.01 µM
  TGI: 0.103 µM
MCF7 breast
  GI50: < 0.01 µM
  TGI: 0.338 µM
SNB-19 CNS
  GI50: < 0.01 µM
  TGI: 7.93 µM
SR leukemia
  GI50: < 0.01 µM
NCI-H23 lung
  GI50: < 0.01 µM
  TGI: 0.0849 µM
T-47D breast
  GI50: < 0.01 µM
  TGI: 21.6 µM

## COc1ccc(-c2[nH]ncc2Nc2cc(OC)c(OC)c(OC)c2)cc1
MDA-MB-435
  GI50: 0.177 µM
  TGI: 0.395 µM
OVCAR-8 ovarian
  GI50: 6.36 µM
  TGI: > 100 µM
SW-620 colon
  GI50: 0.558 µM
  TGI: > 100 µM
SN12C renal
  GI50: 7.18 µM
  TGI: > 100 µM
ACHN renal
  GI50: 10.3 µM
  TGI: > 100 µM
MCF7 breast
  GI50: 0.736 µM
  TGI: > 100 µM
SNB-19 CNS
  GI50: 4.86 µM
  TGI: > 100 µM
SR leukemia
  GI50: 0.36 µM
  TGI: > 100 µM
NCI-H23 lung
  GI50: 4.04 µM
  TGI: > 100 µM
T-47D breast
  GI50: 4.07 µM
  TGI: > 100 µM

## N#CC1=C(N)OC2=C(CCOc3c2ccc2ccccc32)C1c1ccc(Br)cc1 (centres undefined)
MDA-MB-435
  GI50: 16 µM
  TGI: 61.2 µM
OVCAR-8 ovarian
  GI50: 77.5 µM
  TGI: > 100 µM
SW-620 colon
  GI50: > 100 µM
  TGI: > 100 µM
SN12C renal
  GI50: 21.6 µM
  TGI: 47 µM
ACHN renal
  GI50: 41.3 µM
  TGI: > 100 µM
MCF7 breast
  GI50: 20.9 µM
  TGI: 94.2 µM
SNB-19 CNS
  GI50: 77.7 µM
  TGI: > 100 µM
SR leukemia
  GI50: 17 µM
  TGI: 57.8 µM
NCI-H23 lung
  GI50: 32.8 µM
  TGI: > 100 µM
T-47D breast
  GI50: > 100 µM
  TGI: > 100 µM

## CC(=O)c1c(C)c2cnc(Nc3ccc(N4CCNCC4)cn3)nc2n(C2CCCC2)c1=O
MDA-MB-435
  GI50: 6.5 µM
  TGI: 22 µM
OVCAR-8 ovarian
  GI50: 12.9 µM
  TGI: 28.7 µM
SW-620 colon
  GI50: 0.332 µM
  TGI: 19.1 µM
SN12C renal
  GI50: 7.37 µM
  TGI: 21.6 µM
ACHN renal
  GI50: 1.03 µM
  TGI: 14.7 µM
MCF7 breast
  GI50: 0.585 µM
  TGI: 18.7 µM
SNB-19 CNS
  GI50: 11.7 µM
  TGI: 25.4 µM
SR leukemia
  GI50: 1.88 µM
  TGI: 20.7 µM
NCI-H23 lung
  GI50: 11.1 µM
  TGI: 27 µM
T-47D breast
  GI50: 14.5 µM
  TGI: 32.6 µM

## COc1ccc2c(c1)/C(=N/OC(C)=O)c1c-2c(OC)nc2ccccc12
MDA-MB-435
  GI50: > 100 µM
  TGI: > 100 µM
OVCAR-8 ovarian
  GI50: > 100 µM
  TGI: > 100 µM
SW-620 colon
  GI50: > 100 µM
  TGI: > 100 µM
SN12C renal
  GI50: 59.9 µM
  TGI: > 100 µM
ACHN renal
  GI50: 86.4 µM
  TGI: > 100 µM
MCF7 breast
  GI50: 88.3 µM
  TGI: > 100 µM
SNB-19 CNS
  GI50: > 100 µM
  TGI: > 100 µM
SR leukemia
  GI50: 21.6 µM
  TGI: > 100 µM
NCI-H23 lung
  GI50: > 100 µM
  TGI: > 100 µM
T-47D breast
  GI50: 27.7 µM
  TGI: > 100 µM

## Cc1ccc(-c2nc3sc(C)cn3c2/C=C2\C(=O)Nc3ccc(Cl)cc32)cc1
MDA-MB-435
  GI50: 18 µM
  TGI: 34.8 µM
OVCAR-8 ovarian
  GI50: 15.2 µM
  TGI: 33.5 µM
SW-620 colon
  GI50: 19.1 µM
  TGI: 52.1 µM
SN12C renal
  GI50: 15 µM
  TGI: 29.8 µM
ACHN renal
  GI50: 4.27 µM
  TGI: 16 µM
MCF7 breast
  GI50: 7.66 µM
  TGI: 22.3 µM
SNB-19 CNS
  GI50: 10.6 µM
  TGI: 27.7 µM
SR leukemia
  GI50: 10.8 µM
  TGI: 36.7 µM
NCI-H23 lung
  GI50: 12.4 µM
  TGI: 26 µM
T-47D breast
  GI50: 42.2 µM
  TGI: > 100 µM

Reference: PubChem BioAssay (NCI)
